Laboratory results reported in patent publication US10202420B2, “Methods and compositions for treatment of cartilage and disc tissue pathologies” (THE ROYAL INSTITUTION FOR ADVANCEMENT OF LEARNING/MCGILL …, priority 2013, dated 2019).
Where no end group is shown, it is not given here.

Key:
[1] = LIVE/DEAD cell viability in alginate beads; format: cell-based; conditions: bovine, bovine intervertebral disc NP and AF cells in alginate beads, 1 μg/ml, 18 days, alginate scaffolds, read-out: cellular viability
Method: Coccygeal IVDs from healthy 20-24 month old steers were obtained from a local abattoir at 2-3 hours after slaughter. The IVDs were separated from their adjacent vertebral bodies, and the cells were isolated from the NP and AF regions by sequential digestion with 0.2% Pronase followed by 0.125% Collagenase digestion as previously described. After isolation, the NP and AF cells were either immediately embedded in alginate beads or were plated in 6 well plates for protein extraction.
After isolation the NP and AF cells were resuspended in 1.2% alginate (dissolved in 0.15 M NaCl) at a concentration of 2 million cells per ml. Alginate was chosen to assess the effect on matrix production in the absence of extensive cell proliferation. Droplets of cell suspension were released through an 18-gauge needle into 102 mM calcium chloride solution and were let to polymerize for 10 minutes. Alginate beads were subsequently stabilized for 7 days in culture media (Dulbecco's Modified Eagle Medium high glucose supplemented with 10% fetal bovine serum and antibiotics). […]
Cell viability was assessed at day 18 on the alginate beads using a live/dead fluorescence assay (Live/Dead®, Invitrogen) and visualized by fluorescent microscopy.

[2] = test system: bovine nucleus pulposus (NP) cells; assay: Proteoglycan synthesis by 35SO4 incorporation, cells in alginate beads; format: cell-based; conditions: 48 h, 16-mer peptides 1 μg/mL, 8-mer peptides 0.5 μg/mL, vs medium alone
Method: (§1) Human and bovine IVDs were separated from the adjoining vertebral body and divided into NP and AF for bovine IVDs and NP and inner annulus fibrosus (iAF) for human IVDs. Tissue from the human outer annulus fibrosus (oAF) was not used for cell isolation in this study. Cells were enzymatically isolated from each region as previously described (63). Briefly, NP and AF tissues were dissected into approximately 2-mm thick pieces, washed twice in PBS containing 50 μg/mL gentamicin, […] and 0.25 μg/mL fungizone, then digested with 0.2% pronase for 1 h, followed by collagenase type IA at 0.01% for NP and 0.04% for AF tissue for 4 h in serum free DMEM.
(§2) To compare the metabolic response to the various Link N peptides, freshly isolated human and bovine cells from NP and AF regions were embedded in 1.2% alginate beads, as previously described (65). Cells in alginate beads were cultured at 37° C., 5% CO2 in DMEM, containing 4.5 g/L glucose and supplemented with 10% FCS, 25 mmol/L HEPES, 50 μg/mL gentamicin sulphate, 0.25 μg/mL fungizone, 50 μg/mL L-ascorbate, and 2 mmol/L GlutaMAX. The beads were stabilized for 7 days and cell viability was assessed by Live/Dead® assay prior to further treatment. 5 beads per well were then cultured in 48 well plates in the presence of equimolar concentrations of either Link N (1 μg/mL), R-Link N (1 μg/mL), S-Link N (1 μg/mL), Link N 1-8 (0.5 μg/mL) or Link N 9-16 (0.5 μg/mL) in 0.5 mL DMEM. 25 μCi/mL ^35SO4 was added to the medium to allow assessment of proteoglycan synthesis (66). In addition, beads were exposed for 48 h to IL-1β (10 ng/mL) alone, or to a combination of peptides and IL-1β (51). At the end of the culture period, medium was collected and dialyzed exhaustively against miliQ water at […] (Spectra/Por® 3), followed by cold chase with 1M MgSO4 for 2 h to remove any remaining unincorporated ^35SO4. The ^35SO4 incorporation was measured using a beta scintillation counter (Beckman Coulter LS6500, Beckman Coulter, Mississauga, Canada).

[3] = test system: bovine annulus fibrosus (AF) cells; assay: as above; format: cell-based; conditions: 48 h, 16-mer peptides 1 μg/mL, 8-mer peptides 0.5 μg/mL, vs medium alone
Method: as §1, §2

[4] = test system: human nucleus pulposus (NP) cells; assay: as above; format: cell-based; conditions: 48 h; for proteoglycan synthesis (35SO4 incorporation): 16-mer peptides 1 μg/mL, 8-mer peptides 0.5 μg/mL, vs medium alone
Method: (§3) Human thoracolumbar spines were retrieved through the Transplant Quebec organ donation program. Discs were obtained from 7 donors, 1 male and 6 female, with a mean age of 29.6 years and an age range of 16 to 47 years (Table 1). Donors having had recent chemotherapy, radiation therapies to the spine, or significant long-standing paralysis were excluded from the study. Spine retrieval was performed within 8 h of death. Discs with calcification and loss of disc height were not included in the study. All procedures were approved by the institutional review board of the Montreal General Hospital.
as §1, §2

[5] = test system: human inner annulus fibrosus (iAF) cells; assay: as above; format: cell-based; conditions: human AF (iAF) cells, 48 h; for proteoglycan synthesis (35SO4 incorporation): 16-mer peptides 1 μg/mL, 8-mer peptides 0.5 μg/mL, vs medium alone
Method: as §3, §1, §2

[6] = test system: cells from degenerated disc tissue; conditions: Wang et al.; 100 ng/mL; monolayer-expanded cells in 3D culture; cited from earlier work
[7] = IL-1β 10 ng/mL, vs IL-1-containing medium

| Substance | viability at 432 h, 1 µg/mL [1] [%] | proteoglycan synthesis (35SO4 incorporation) [2] | proteoglycan synthesis (35SO4 incorporation) [3] | proteoglycan synthesis (35SO4 incorporation) [4] | proteoglycan synthesis (35SO4 incorporation) [5] | proteoglycan synthesis (35SO4 incorporation) in the presence of IL-1β [4, 7] | proteoglycan synthesis (35SO4 incorporation) in the presence of IL-1β [5, 7] | stimulatory effect (cell-associated sulphated GAG) [6] |
| --- | --- | --- | --- | --- | --- | --- | --- | --- |
| DHHSDNYTVDHDRVIH [BLN, DHHSDNYTVDHDRVIH] | > 98 |  |  |  |  |  |  |  |
| DLNRAHLHIDYHTDSD [S-Link N, scrambled Link N] |  | no effect was observed | no effect was observed | no response | no response |  |  |  |
| HIARDHDLTYNDSLHD [R-Link N, reverse Link N] |  | no effect was observed | no effect was observed | no response | no response |  |  |  |
| LDHDRAIH [Link N 9-16, second 8 peptide residues of Link N] |  | no effect was seen | no effect was seen | no response | no response | no response | no response |  |
| residue 1-12 peptide: Link N-derived peptide spanning amino acid residues 1-12, tested by Wang et al. (DHLSDNYTLDHD; UniProt P10915 16-27, looked up, fragment) |  |  |  |  |  |  |  | inactive |
